Laboratory results published in ChEMBL document CHEMBL1126146, “Synthesis and muscarinic activity of quinuclidinyl- and (1-azanorbornyl)pyrazine derivatives” (J Med Chem, 1992).

Experiments:
[1] = molecular target: T1, Muscarinic acetylcholine receptor (Rattus norvegicus) (UniProt P08482+P08483+P08485+P08911+P10980)
Description: In vitro binding affinity against cortical muscarinic acetylcholine receptor measured by displacement of [3H]OXO-M.

[2] = molecular target: T1, Muscarinic acetylcholine receptor (Rattus norvegicus); remark: listed apart in the source
Description: In vitro binding affinity against cortical muscarinic acetylcholine receptor measured by displacement of [3H]NMS.

Q: Which K app [1] does the source give for `Clc1cncc(C2CN3CCC2CC3)n1` (configuration not stated) here?
A: 0.00087 µM

Q: What about the K app [2] of the same compound?
A: 0.051 µM

Q: `c1cnc([C@@H]2CN3CCC2C3)cn1` (some centres not stated) was tested. Which K app [1] did it give?
A: 0.0007 µM

Q: And the K app [2]?
A: 1.6 µM

Q: What does the source list for `Cc1nccnc1[C@H]1CN2CCC1C2` (some centres not stated)?
A: K app [1]: 0.00026 µM; K app [2]: 0.21 µM

Q: Which results are given for `CCc1nccnc1[C@H]1CN2CCC1C2` (some centres not stated)?
A: K app [1]: 0.02 µM; K app [2]: 0.69 µM

Q: What does the source list for `Cc1cnc(C)c([C@@H]2CN3CCC2C3)n1` (some centres not stated)?
A: K app [1]: 0.13 µM; K app [2]: 3 µM

Q: `CCc1cncc(C2CN3CCC2C3)n1` (stereo in doubt; 27a) was tested. Which K app [1] did it give?
A: 0.0095 µM

Q: And the K app [2]?
A: 0.13 µM

Q: `Cc1nccnc1C1CN2CCC1CC2` (configuration not stated) was tested. Which K app [1] did it give?
A: 0.01 µM

Q: And the K app [2]?
A: 1.51 µM

Q: `Clc1cncc(C2CN3CCC2C3)n1` (configuration not stated) was tested. Which K app [1] did it give?
A: 0.00056 µM

Q: And the K app [2]?
A: 0.21 µM

Q: With `Cc1cnc(C)c(C2CN3CCC2CC3)n1` (configuration not stated) as the compound, how does the K app [1] read?
A: 0.026 µM

Q: And the K app [2]?
A: 0.26 µM

Q: What does the source list for `c1ncc(C2CN3CCC2CC3)cn1` (configuration not stated)?
A: K app [1]: 0.16 µM; K app [2]: 2.8 µM

Q: With `C=CCOc1cncc([C@H]2CN3CCC2C3)n1` (some centres not stated) as the compound, how does the K app [1] read?
A: 0.03 µM

Q: What about the K app [2] of the same compound?
A: 0.23 µM

Q: Which results are given for `c1cnc(C2CN3CCC2CC3)cn1` (configuration not stated)?
A: K app [1]: 0.00068 µM; K app [2]: 0.27 µM

Q: How did the K app [1] turn out when `Oc1cncc(C2CN3CCC2CC3)n1` (configuration not stated) was run?
A: 0.28 µM

Q: What about the K app [2] of the same compound?
A: 27 µM

Q: For `C=CCOc1cncc([C@@H]2CN3CCC2C3)n1` (some centres not stated), which K app [1] is on record?
A: 0.021 µM

Q: What about the K app [2] of the same compound?
A: 0.12 µM

Q: `CCOc1cncc(C2CN3CCC2CC3)n1` (configuration not stated) was tested. Which K app [1] did it give?
A: 0.0021 µM

Q: And the K app [2]?
A: 0.019 µM

Q: For `Cc1cnc(C)c([C@H]2CN3CCC2C3)n1` (some centres not stated), which K app [1] is on record?
A: 0.011 µM

Q: And the K app [2]?
A: 0.19 µM

Q: For `COc1cncc([C@@H]2CN3CCCC2C3)n1` (some centres not stated), which K app [1] is on record?
A: 0.0093 µM

Q: And the K app [2]?
A: 0.19 µM

Q: Which K app [1] does the source give for `Cc1ncc([C@H]2CN3CCC2C3)nc1C` (some centres not stated) here?
A: 0.015 µM

Q: And the K app [2]?
A: 0.28 µM

Q: Which K app [1] does the source give for `Cc1ncc(C2CN3CCC2CC3)nc1C` (configuration not stated) here?
A: 0.0095 µM

Q: What about the K app [2] of the same compound?
A: 0.078 µM

Q: With `CCCc1nccnc1C1CN2CCC1C2` (configuration not stated) as the compound, how does the K app [1] read?
A: 0.015 µM

Q: And the K app [2]?
A: 0.35 µM

Q: Which K app [1] does the source give for `CCc1cncc(C2CN3CCC2CC3)n1` (configuration not stated) here?
A: 0.0017 µM

Q: What about the K app [2] of the same compound?
A: 0.02 µM

Q: Which K app [1] does the source give for `Cc1cncc([C@@H]2CN3CCC2C3)n1` (some centres not stated) here?
A: 0.0015 µM

Q: What about the K app [2] of the same compound?
A: 0.47 µM

Q: What does the source list for `CN(C)c1cncc([C@@H]2CN3CCC2C3)n1` (some centres not stated)?
A: K app [1]: 0.07 µM; K app [2]: 0.03 µM

Q: For `Cc1cncc(C2CN3CCC2CC3)n1` (configuration not stated), which K app [1] is on record?
A: 0.0021 µM

Q: And the K app [2]?
A: 0.066 µM

Q: What does the source list for `Cc1nc(C)c([C@@H]2CN3CCC2C3)nc1C` (some centres not stated)?
A: K app [1]: 0.25 µM; K app [2]: 1.6 µM

Q: Which results are given for `CC(C)Oc1cncc([C@H]2CN3CCC2C3)n1` (some centres not stated)?
A: K app [1]: 0.031 µM; K app [2]: 0.13 µM

Q: For `COc1cncc([C@@H]2CN3CCC2C3)n1` (some centres not stated), which K app [1] is on record?
A: 0.0098 µM

Q: What about the K app [2] of the same compound?
A: 0.46 µM

Q: Which results are given for `C#CCOc1cncc(C2CN3CCC2C3)n1` (configuration not stated)?
A: K app [1]: 0.0088 µM; K app [2]: 0.15 µM

Q: `c1cnc([C@@H]2CN3CCCC2C3)cn1` (some centres not stated) was tested. Which K app [1] did it give?
A: 0.014 µM

Q: And the K app [2]?
A: 1.5 µM

Q: For `CCc1nccnc1[C@@H]1CN2CCC1C2` (some centres not stated), which K app [1] is on record?
A: 0.14 µM

Q: What about the K app [2] of the same compound?
A: 2.2 µM

Q: What does the source list for `COc1cncc([C@H]2CN3CCCC2C3)n1` (some centres not stated)?
A: K app [1]: 0.087 µM; K app [2]: 1.2 µM

Q: For `c1cnc([C@H]2CN3CCC2C3)cn1` (some centres not stated), which K app [1] is on record?
A: < 8.6e-05 µM

Q: What about the K app [2] of the same compound?
A: 0.059 µM

Q: How did the K app [1] turn out when `Cc1ncc(C2CN3CCC2CC3)cn1` (configuration not stated) was run?
A: 0.091 µM

Q: What about the K app [2] of the same compound?
A: 1.5 µM

Q: What does the source list for `CCc1cncc(C2CN3CCC2C3)n1` (stereo in doubt; 27b)?
A: K app [1]: 0.0021 µM; K app [2]: 0.15 µM

Q: For `Cc1cnc([C@@H]2CN3CCC2C3)c(C)n1` (some centres not stated), which K app [1] is on record?
A: 0.66 µM

Q: What about the K app [2] of the same compound?
A: 6.2 µM

Q: Which results are given for `Cc1nc(C)c([C@H]2CN3CCC2C3)nc1C` (some centres not stated)?
A: K app [1]: 0.053 µM; K app [2]: 0.35 µM

Q: How did the K app [1] turn out when `c1cnc([C@H]2CN3CCCC2C3)cn1` (some centres not stated) was run?
A: 0.00084 µM

Q: And the K app [2]?
A: 0.4 µM

Q: `Clc1ccc(C2CN3CCC2CC3)nn1` (configuration not stated) was tested. Which K app [1] did it give?
A: 0.098 µM

Q: And the K app [2]?
A: 3.5 µM

Q: For `Nc1noc(C2CN3CCC2C3)n1` (stereo in doubt; 3b), which K app [1] is on record?
A: 0.0051 µM

Q: For `Brc1cncc(C2CN3CCC2CC3)n1` (configuration not stated), which K app [1] is on record?
A: 0.001 µM

Q: What about the K app [2] of the same compound?
A: 0.033 µM

Q: Which K app [1] does the source give for `COc1cncc([C@H]2CN3CCC2C3)n1` (some centres not stated) here?
A: 0.038 µM

Q: And the K app [2]?
A: 0.96 µM

Q: `COc1cncc(C2CN3CCC2CC3)n1` (configuration not stated) was tested. Which K app [1] did it give?
A: 0.0076 µM

Q: What about the K app [2] of the same compound?
A: 0.14 µM

Q: What does the source list for `Cc1cnc([C@H]2CN3CCC2C3)c(C)n1` (some centres not stated)?
A: K app [1]: 0.017 µM; K app [2]: 0.75 µM

Q: Which K app [1] does the source give for `CC(C)Oc1cncc([C@@H]2CN3CCC2C3)n1` (some centres not stated) here?
A: 0.012 µM

Q: And the K app [2]?
A: 0.049 µM

Q: For `Cc1cncc([C@H]2CN3CCC2C3)n1` (some centres not stated), which K app [1] is on record?
A: 0.0014 µM

Q: And the K app [2]?
A: 0.18 µM

Q: How did the K app [1] turn out when `CC(C)c1nccnc1C1CN2CCC1C2` (configuration not stated) was run?
A: 0.022 µM

Q: And the K app [2]?
A: 0.48 µM

Q: `Cc1nccnc1[C@@H]1CN2CCC1C2` (some centres not stated) was tested. Which K app [1] did it give?
A: 0.0016 µM

Q: What about the K app [2] of the same compound?
A: 5.2 µM

Q: How did the K app [1] turn out when `Cc1ncc([C@@H]2CN3CCC2C3)nc1C` (some centres not stated) was run?
A: 0.013 µM

Q: And the K app [2]?
A: 0.53 µM

Q: For `CN(C)c1cncc([C@H]2CN3CCC2C3)n1` (some centres not stated), which K app [1] is on record?
A: 0.057 µM

Q: And the K app [2]?
A: 0.86 µM
